Laboratory results reported in US11312676B2, “Small molecule stimulators of steroid receptor coactivator proteins and their use in the treatment of cancer” (BAYLOR COLLEGE OF MEDICINE, priority 2014, dated 2022).

What was measured:
VP16 = target: T1, VP16 (Human herpesvirus 1, UniProt P06492); test: Gal4-VP16 + pG5-LUC luciferase assay in HeLa cells; assay type: cell-based; settings: 24 hours, only at higher compound concentrations
T1 construct: expressed in transfected cells; host or cells: HeLa
T1 sequence (P06492 413-490): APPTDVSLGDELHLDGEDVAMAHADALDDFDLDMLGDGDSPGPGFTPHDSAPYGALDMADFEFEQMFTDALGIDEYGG

HeLa cells = test: Cytoplasmic vacuolization of cancer cells; assay type: cell-based; settings: HeLa, MCF-7 or MDA-MB-231 cells
PGC-1α = test: Gal4-PGC-1α + pG5-LUC luciferase assay in HeLa cells; assay type: cell-based; settings: 24 hours, 2-10 μM
SRC-3 = target: T2, SRC-3 (Homo sapiens, UniProt Q9Y6Q9); test: Gal4 luciferase reporter assay (pBIND-SRC-3 + pG5-LUC) in HeLa cells; assay type: cell-based
T2 construct: expressed in transfected cells; host or cells: HeLa
T2 sequence (Q9Y6Q9 whole entry, the tested form may be a part): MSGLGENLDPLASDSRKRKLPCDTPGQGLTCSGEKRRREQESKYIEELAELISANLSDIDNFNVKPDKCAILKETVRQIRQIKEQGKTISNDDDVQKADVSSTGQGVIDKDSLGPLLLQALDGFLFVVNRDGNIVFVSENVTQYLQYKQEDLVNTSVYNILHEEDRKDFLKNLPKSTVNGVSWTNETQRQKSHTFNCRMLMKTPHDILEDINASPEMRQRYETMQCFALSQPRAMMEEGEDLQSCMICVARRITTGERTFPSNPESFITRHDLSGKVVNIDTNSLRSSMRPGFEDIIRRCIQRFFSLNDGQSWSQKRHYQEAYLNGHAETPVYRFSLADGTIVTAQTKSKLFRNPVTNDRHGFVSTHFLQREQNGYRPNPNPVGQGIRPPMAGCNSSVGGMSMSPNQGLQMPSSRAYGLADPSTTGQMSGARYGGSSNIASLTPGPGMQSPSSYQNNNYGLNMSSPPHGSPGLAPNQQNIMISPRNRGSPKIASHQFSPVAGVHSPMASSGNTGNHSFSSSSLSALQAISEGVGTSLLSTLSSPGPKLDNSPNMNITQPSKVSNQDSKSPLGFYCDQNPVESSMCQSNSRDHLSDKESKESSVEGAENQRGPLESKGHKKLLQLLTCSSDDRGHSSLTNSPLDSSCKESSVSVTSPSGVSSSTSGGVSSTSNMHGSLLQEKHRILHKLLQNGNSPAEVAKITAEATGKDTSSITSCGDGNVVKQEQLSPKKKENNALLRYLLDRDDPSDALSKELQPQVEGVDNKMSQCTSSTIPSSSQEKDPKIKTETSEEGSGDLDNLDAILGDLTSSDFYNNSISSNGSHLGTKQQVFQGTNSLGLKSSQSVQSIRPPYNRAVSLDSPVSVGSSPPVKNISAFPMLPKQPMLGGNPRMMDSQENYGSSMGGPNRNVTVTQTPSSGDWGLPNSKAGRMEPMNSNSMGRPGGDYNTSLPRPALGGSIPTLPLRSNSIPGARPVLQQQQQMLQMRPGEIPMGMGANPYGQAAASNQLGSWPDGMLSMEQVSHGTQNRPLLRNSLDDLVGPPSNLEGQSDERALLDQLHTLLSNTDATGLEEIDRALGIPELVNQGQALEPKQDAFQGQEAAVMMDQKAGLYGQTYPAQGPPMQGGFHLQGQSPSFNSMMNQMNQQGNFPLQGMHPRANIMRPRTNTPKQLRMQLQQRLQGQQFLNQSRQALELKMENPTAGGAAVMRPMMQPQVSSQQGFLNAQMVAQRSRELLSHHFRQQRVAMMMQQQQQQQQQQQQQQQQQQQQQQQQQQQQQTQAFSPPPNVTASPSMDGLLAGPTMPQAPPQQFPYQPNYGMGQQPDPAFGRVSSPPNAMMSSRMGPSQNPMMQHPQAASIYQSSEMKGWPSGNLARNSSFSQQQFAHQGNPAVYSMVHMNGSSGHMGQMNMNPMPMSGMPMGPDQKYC
Method: (§1) The constructs expressing the Gal4 responsive luciferase reporter (pG5-luc), Gal4 DBD fusion with SRC-1, […] (pBIND-SRC-1/-2/-3), MMP2 or MMP13 promoter driven luciferase reporter (MMP2-luc, MMP13-luc) were prepared. Twenty-four hours before transfection, HeLa cells were plated in 24-well dishes. The indicated expression plasmids were transfected into cells using Lipofectamine 2000 according to the manufacturer's instructions.
(§2) After various compound treatments, cells were lysed in luciferase lysis buffer and assayed for luciferase activity using the ONE-Glo luciferase assay system (Promega, Madison, Wis.). All luciferase activities were normalized to protein concentration determined by Bradford assay (Bio-Rad, Hercules, Calif.).
HeLa cells were transfected with a Gal4 responsive luciferase reporter (pG5-luc) and a construct encoding SRC-1, SRC-2 or SRC-3 fused with the DNA binding domain of Gal4 (pBIND-SRC-1, pBIND-SRC-2 or pBIND-SRC-3) were treated with the indicated compounds.

[1] = system: mouse primary hepatocytes; test: MTS cell viability assay, mouse primary hepatocytes; assay type: cell-based; settings: 48 hours
Method: (§3) Cell lines were maintained in DMEM (HeLa, MCF-7, HepG2), RPMI 1640 (H1299), or DMEM/F12 (PC-3) supplemented with 10% fetal calf serum, penicillin and streptomycin (100 U/ml). Primary mouse hepatocytes were isolated and cultured. Mouse embryonic fibroblasts (MEF) were cultured in DMEM. All cells were maintained at 37° C. under 5% CO2.
(§4) Cells were seeded in 96-well plates and allowed to reach 70% to 80% confluence. After indicated compound treatments, relative numbers of viable cells were measured by MTS assay using the Cell Titer 96 Aqueous One Solution Cell Proliferation Assay (Promega).

intracellular ROS levels = test: Measurement of reactive oxygen species with CM-H2DCFDA; assay type: cell-based; settings: 30 minutes treatment
Method: Cells were loaded with 10 μM general ROS indicator CM-H2DCFDA in serum free DMEM for 30 minutes at 37° C. in the dark. After a 5-minute recovery in complete DMEM, cells were treated with indicated concentrations of MCB-613 for 30 minutes, then fixed and examined by fluorescence microscopy.

[2] = system: SRC-1, SRC-2 and SRC-3 protein levels; test: Immunoblot of SRC protein levels in HeLa cells; assay type: cell-based; settings: 24 hours
Method: For Western blotting, cells were harvested and lysed in lysis buffer (50 mM Tris, pH 8.0, 150 mM NaCl, 10% glycerol, 0.5% NP40, protease and phosphatase inhibitor) and then centrifuged for 15 min at 14000 rpm at 4° C. After total cellular protein concentration was determined by Bradford analysis (Bio-Rad, Hercules, Calif.), protein lysates were loaded onto and resolved by sodium dodecyl sulfate-polyacrylamide gel electrophoresis (SDS-PAGE) and transferred to PVDF membranes (BioRad) which were blocked and incubated with indicated antibodies. For immunoprecipitation, 10 μg of plasmid encoding FLAG-SRC-3 was transfected into HeLa cells with 90% confluence in one 10 cm plate with lipofectamine 2000 (Invitrogen). Twenty-four hours after transfection, the cells were treated with MCB-613 for one hour and lysed with lysis buffer (25 mM Tris-Cl pH7.5, 150 mM NaCl, 5% glycerol, 1 mM EDTA, 1% Triton X-100, protease and phosphatase inhibitor) at 4° C. After a 30-second sonication, the lysate was cleared by centrifugation at 14000 rpm at 4° C. for 15 minutes and was incubated with anti-Flag-M2 agarose affinity gel (Sigma) for four hours. The agarose gel was washed four times with washing buffer (25 mM Tris pH 8.0, 150 mM NaCl, 1 mM EDTA, 1% Triton X-100) and resuspended with SDS loading buffer for Western blotting.

MMP13 promoter = test: MMP13-luc reporter with SRC-3 expression vector in HeLa cells; assay type: cell-based; settings: 24 hours
Method: as §1, §2

[3] = system: MCF-7 breast cancer xenograft; test: MCF-7 xenograft tumor model; assay type: in vivo; settings: 20 mg/kg i.p. three times a week
Method: Twenty 6-8 week-old athymic nude female mice were obtained from Harlan. Two days before cancer cell injection, one estradiol pellet was embedded under the skin for each mouse and a new pellet was added twice at a one month interval. Following this, 1×10^6 MCF-7 cells […] mixed with equal volume of growth factor reduced matrigel (BD Biosciences) were injected into the fat pad of each of the 2nd pair mammary gland without clearing. The MCB-613 treatment which lasted for seven weeks was started approximately seven weeks after the cell injection when tumor sizes reached above 5 mm in diameter. Ten mice received MCB-613 (20 mg/kg) in saline by i.p. injection, whereas the control group contained 10 mice which received saline only. The compound was injected three times a week. The mice were weighed once a week and tumors were measured twice a week during the treatment period.
To further evaluate the anti-cancer potential of MCB-613, a MCF-7 breast cancer mouse xenograft model was employed to assess the tumor suppressive effects of MCB-613 in vivo. Tumors were established in athymic nude mice seven weeks after injection of MCF-7 cells into […] mammary fat pads. An MCB-613 treated group (n=10) received i.p. injection of the compound (20 mg/kg) three times a week, while a control group (n=10) was injected with a saline vehicle.

SRC-2 = target: T3, SRC-2 (Homo sapiens, UniProt Q15596); test: Gal4 luciferase reporter assay (pBIND-SRC-2 + pG5-LUC) in HeLa cells; assay type: cell-based; settings: 24-hour treatment, 5-8 μM, maximum over SRC-1/-2/-3
T3 construct: expressed in transfected cells; host or cells: HeLa
T3 sequence (Q15596 whole entry, the tested form may be a part): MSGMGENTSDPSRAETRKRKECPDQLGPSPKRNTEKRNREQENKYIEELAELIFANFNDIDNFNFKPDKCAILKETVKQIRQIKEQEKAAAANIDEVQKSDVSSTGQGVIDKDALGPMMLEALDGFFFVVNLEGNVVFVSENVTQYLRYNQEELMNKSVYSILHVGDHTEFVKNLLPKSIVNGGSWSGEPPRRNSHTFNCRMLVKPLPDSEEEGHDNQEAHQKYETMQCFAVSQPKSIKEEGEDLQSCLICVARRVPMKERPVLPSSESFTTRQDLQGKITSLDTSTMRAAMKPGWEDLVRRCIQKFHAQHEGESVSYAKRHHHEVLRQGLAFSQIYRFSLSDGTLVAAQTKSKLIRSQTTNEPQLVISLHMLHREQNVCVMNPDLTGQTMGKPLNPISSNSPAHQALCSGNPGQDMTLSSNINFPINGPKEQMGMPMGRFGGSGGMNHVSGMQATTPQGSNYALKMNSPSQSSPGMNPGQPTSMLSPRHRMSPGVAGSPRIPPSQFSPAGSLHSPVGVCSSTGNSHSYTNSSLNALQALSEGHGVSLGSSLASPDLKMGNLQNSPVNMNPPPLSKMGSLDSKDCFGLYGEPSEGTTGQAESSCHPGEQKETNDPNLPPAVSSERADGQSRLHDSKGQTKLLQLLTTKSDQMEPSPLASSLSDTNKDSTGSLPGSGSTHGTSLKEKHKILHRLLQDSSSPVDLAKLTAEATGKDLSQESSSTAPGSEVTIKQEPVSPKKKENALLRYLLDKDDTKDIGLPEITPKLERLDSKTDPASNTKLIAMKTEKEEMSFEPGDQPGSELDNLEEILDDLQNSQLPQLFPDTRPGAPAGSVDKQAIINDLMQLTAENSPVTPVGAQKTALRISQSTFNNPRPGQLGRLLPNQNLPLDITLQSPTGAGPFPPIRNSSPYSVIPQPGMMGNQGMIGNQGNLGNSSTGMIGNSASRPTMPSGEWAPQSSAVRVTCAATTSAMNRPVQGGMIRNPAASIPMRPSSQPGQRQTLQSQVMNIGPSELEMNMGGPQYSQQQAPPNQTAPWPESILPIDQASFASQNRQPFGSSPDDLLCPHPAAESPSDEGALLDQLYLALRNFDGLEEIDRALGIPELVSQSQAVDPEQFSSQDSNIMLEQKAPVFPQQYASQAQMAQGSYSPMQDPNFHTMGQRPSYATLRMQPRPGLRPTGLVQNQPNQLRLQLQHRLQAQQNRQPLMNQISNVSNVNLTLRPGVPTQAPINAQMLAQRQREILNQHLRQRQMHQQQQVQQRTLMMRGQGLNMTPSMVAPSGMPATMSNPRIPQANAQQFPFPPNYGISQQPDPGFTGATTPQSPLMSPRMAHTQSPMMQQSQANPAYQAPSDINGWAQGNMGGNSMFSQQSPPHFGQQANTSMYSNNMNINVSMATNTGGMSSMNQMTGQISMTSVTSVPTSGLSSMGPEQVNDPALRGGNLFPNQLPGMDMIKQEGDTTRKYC
Method: as §1, §2

MEF cells = test: MTS cell viability assay, mouse embryonic fibroblasts; assay type: cell-based; settings: 48 hours
Method: as §3, §4

H1299 (lung) cells = test: MTS cell viability assay, H1299; assay type: cell-based; settings: H1299, 48 hours
Method: as §3, §4

**Q.** Which “activity of GAL4-VP16 fusion protein” value (VP16) does the source give for `CCC1CC(=Cc2cccnc2)C(=O)C(=Cc2cccnc2)C1` (stereo not drawn) [MCB-613, 4-Ethyl-2,6-bis-pyridin-3-ylmethylene-cyclohexanone] here?
**A.** The value was “minimally increasing the activity”.

**Q.** What about the “vacuolization in cancer cells” value (HeLa cells) of the same compound?
**A.** The value was “induced extensive vacuolization”.

**Q.** And the “stimulation of GAL4-PGC-1α coactivator fusion protein” value (PGC-1α)?
**A.** The value was “failing to stimulate”.

**Q.** And the “induction in the activity of pBIND-SRC-3” value (SRC-3; 24-hour treatment, 5-8 μM, maximum over SRC-1/-2/-3)?
**A.** The value was no more than 160 fold.

**Q.** And the “SRC activity after 4 hours of treatment” value (SRC-3; 4 hours, 6-10 μM)?
**A.** The value was “significant increase”.

**Q.** What about the “cytotoxicity to normal cells” value [1] of the same compound?
**A.** The value was “resistant”.

**Q.** What about the “intracellular ROS levels” value (intracellular ROS levels) of the same compound?
**A.** Its value is “rapid and marked increase”.

**Q.** What about the “SRC-1, SRC-2 and SRC-3 protein levels” value [2] of the same compound?
**A.** The value was “decreases”.

**Q.** And the “SRC-3's coactivation of the MMP13 promoter” value (MMP13 promoter)?
**A.** Its value is “greatly enhanced”.

**Q.** And the animal toxicity ([3]; 7 weeks)?
**A.** Its animal toxicity is “did not lead to obvious animal toxicity”.

**Q.** What about the “body weights between control and treated groups” value ([3]; 7 weeks) of the same compound?
**A.** The value was “identical”.

**Q.** What about the “tumor volumes versus controls” value ([3]; after one week of treatment and throughout) of the same compound?
**A.** The value was “significantly smaller than controls”.

**Q.** And the “induction in the activity of pBIND-SRC-2” value (SRC-2)?
**A.** Its value is no more than 160 fold.

**Q.** And the “cytotoxicity to normal cells” value (MEF cells)?
**A.** The value was “resistant”.

**Q.** And the “cytotoxicity, cell viability” value (H1299 (lung) cells)?
**A.** Its value is “efficiently kill”.
